The values that follow come from patent US9636377B2, “Compositions and methods for the treatment of retinal degeneration” (UNIVERSITE DE STRASBOURG, priority 2012, dated 2017).

Series [1] deals with Bbs12−/− mouse retina. The series is described as follows: Retinal histology (ONL thickness, cilia) of treated Bbs12−/− mice. The series is classed as in vivo. To be noted: for ONL layer thickness: 4 weeks of age, 37 μm for untreated retinas. As to the method:
The Bbs12^−/− mice were generated as previously described. Bbs12^−/− mice were obtained by crossing heterozygote animals. Mice were housed in humidity and temperature controlled rooms on a 12-hour light/12-hour dark cycle with food ad libitum and water. For anti-apoptotic treatments, animals were treated with eye drops from 2 to 4 weeks of age once a day; the eye drops contain GBZ 7.5 μM and Caspase Inhibitor 500 μM for the left eye and contain 5% DMSO for the right eye. […] Eye drop treatment was achieved from 2 to 4 weeks of age and systemic treatments were achieved from 3 to 4 weeks of age. At 4 weeks of age, electrophysiological analyses were performed and the retinas were harvested for molecular analysis. Sections or cells were washed with PBS 1× and shortly fixated with Formalin 10% solution for 5 minutes and washed three times with PBS 1×. The sections were then pre-incubated with Teng-T (10 mM TrisHCl (pH=7.6), 5 mM EDTA (catalog # E5768, Sigma-Aldrich), 150 mM NaCl, 0.25% gelatin (catalog # G9391, Sigma-Aldrich), 0.05% Tween-20)/10% normal goat serum (catalog #PCN5000, Gibco) for 30 min, followed by an overnight incubation with the primary antibody diluted in Teng-T/10% NGS at 4° C. Slides were then washed with PBS 1× and incubated with the indicated secondary antibody in Teng-T/10% NGS for 1 hour at room temperature. Slides were washed in PBS 1× and nuclear staining was performed with DAPI (catalog # D1306, Invitrogen). Slides were mounted with Immumount (catalog #9990402, ThermoFisher). TUNEL assays were performed using In Situ Cell Death Detection Kit (catalog #11684795910, Roche) according to suppliers' protocol. The prevalence of apoptotic nuclei was expressed as the ratio of TUNEL-positive nuclei and DAPI-stained nuclei in three different areas of the ONL per experiment. All results shown are representative of at least 3 separate experiments.

Another series deals with RP patients. To be noted: RP patients treated for 2 or 4 months; cited from earlier work.
The subject of the next series is rat retina. To be noted: ischemia-reperfusion injury, systemic administration; cited from earlier work.
Series [2] has as its system Bbs12−/− mouse retina. The series is described as follows: Scotopic electroretinogram of treated Bbs12−/− mice. The series is classed as in vivo. The following applies: 4 weeks of age; for scotopic ERG recording: systemic VPA 5 mg/mL, systemic GBZ 50 μM, or GIV (eye drops GBZ 7.5 μM + INH 500 μM, systemic VPA). As to the method: (§1) The Bbs12^−/− mice were generated as previously described. Bbs12^−/− mice were obtained by crossing heterozygote animals. Mice were housed in humidity and temperature controlled rooms on a 12-hour light/12-hour dark cycle with food ad libitum and water. For anti-apoptotic treatments, animals were treated with eye drops from 2 to 4 weeks of age once a day; the eye drops contain GBZ 7.5 μM and Caspase Inhibitor 500 μM for the left eye and contain 5% DMSO for the right eye. […] Eye drop treatment was achieved from 2 to 4 weeks of age and systemic treatments were achieved from 3 to 4 weeks of age. At 4 weeks of age, electrophysiological analyses were performed and the retinas were harvested for molecular analysis.
Mice were dark adapted for 12 hours before recording. Those experiments were performed under dim red light. The mice were anesthetized with the same anesthesia mix described in the section above. The pupils were dilated with eye drops of atropine 0.3% (catalog # Atropine Alcon 0.3%, Alcon, Rueil-Malmaison, France). Animals were placed on a controlled heating pad and maintained at 37° C. during the procedure. The reference electrode was placed under the head skin and the background electrode was inserted in the tail of the animal. The measuring electrode was placed on the cornea, to optimize contact between the cornea and the gold electrode, and a drop of methylcellulose gel (catalog # Ocry-gel, TVM Laboratories, Lempdes, France) was added. Flashes were delivered though a Ganzfeld equipped with light-emitting diodes with maximum output of 318 cd/m^2 (Siem Biomédicale, Nimes, France). For the scotopic ERG, the flash duration varied from 3 to 5 ms with final flash output ranging from 0.001 to 1 cd*s/m^2. Responses were amplified, filtered (1-300-Hz band pass), and digitized (Visiosystem; Siem Biomédicale). The a and b waves were measured by using a 1-75-Hz band pass to filter oscillatory potentials.

In series [3] the test system is eIF2α phosphorylation and BiP. The series is described as follows: Western blot of phosphorylated eIF2α and BiP in retinas of treated Bbs12−/− mice. The series is classed as in vivo, mouse. As to the method:
as §1, with “Bbs12^-/-” for “Bbs12^−/−”, “analysis. […] After retina dissociation using dounce homogenizer, samples were sonicated and protein concentration was determined using Bradford reagent (catalog #500-0006, BioRad). For Western blotting, 80 μg of whole protein extracts were loaded per lane and Ponceau S staining was used as loading control for signal quantification. […] Signal quantification was assed using QuantityOne software from BioRad.” for “analysis.”

On to `CCCC(CCC)C(=O)O` [VPA, valproic acid], for which, in the series on Bbs12−/− mouse retina [1], the “protective effect on photoreceptors, overall in vivo (electrophysiological and histological analysis)” value is “efficient to reduce photoreceptor apoptosis”; the ONL layer thickness is given as 44 μm. Moreover, in the series with RP patients, the visual field result is reported as “increase of visual field in 5 to 7 patients”. In the series with rat retina, the BiP expression result is listed as “increased” and the caspase-12 activation entry is recorded as “reduced”. Further, in the series on Bbs12−/− mouse retina [2], the “a wave amplitude, scotopic ERG” value is “significantly increased”; the “b wave amplitude, scotopic ERG” value is on record as “higher”; the “scotopic ERG recording” value was “clear amelioration”. For the same compound, the BiP protein level result in series [3] is given as “increased”.

Regarding `N=C(N)N/N=C/c1c(Cl)cccc1Cl` [GBZ, guanabenz], in the series on Bbs12−/− mouse retina [1], the “protective effect on photoreceptors, overall in vivo (electrophysiological and histological analysis)” value is “efficient to reduce photoreceptor apoptosis”; the ONL layer thickness is given as 45 μm. In the series on Bbs12−/− mouse retina [2], the “a wave amplitude, scotopic ERG” value was “significantly increased”; the “b wave amplitude, scotopic ERG” value is reported as “significantly increased”; the “scotopic ERG recording” value is listed as “clear amelioration”. For the same compound, the “phosphorylated status of eIF2α” value in series [3] was “increased”.
